{
  "source": "paper PMC3196794",
  "about": "(Chemical research in toxicology, 2011)",
  "key": {"hSULT2A1 [1]": {"target": "T1, hSULT2A1 (Homo sapiens, UniProt Q06520)", "T1 sequence (Q06520 1-285)": "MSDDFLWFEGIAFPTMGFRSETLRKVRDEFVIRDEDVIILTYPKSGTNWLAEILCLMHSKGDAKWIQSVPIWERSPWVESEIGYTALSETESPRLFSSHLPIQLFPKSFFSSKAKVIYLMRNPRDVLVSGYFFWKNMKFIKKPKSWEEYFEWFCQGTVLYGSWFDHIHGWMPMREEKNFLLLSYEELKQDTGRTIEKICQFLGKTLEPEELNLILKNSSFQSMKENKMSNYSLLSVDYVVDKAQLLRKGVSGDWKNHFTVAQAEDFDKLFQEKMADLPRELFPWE", "assay": "Inhibition of the sulfation of DHEA catalyzed by hSULT2A1", "assay_type": "biochemical"}, "hSULT2A1 [2]": {"target": "T1, hSULT2A1", "assay": "CoMFA 3D-QSAR model for inhibition of hSULT2A1 by OHPCBs", "details": "for Difference between the experimental and the predicted values for pIC50: CoMFA Model 1"}, "hSULT2A1 [3]": {"target": "T1, hSULT2A1", "assay": "OHPCBs as substrates for hSULT2A1", "assay_type": "biochemical", "details": "200 μM PAPS; fit to substrate inhibition equation"}, "[4]": {"details": "pH 7"}, "hSULT2A1 [5]": {"target": "T1, hSULT2A1", "details": "200 μM PAPS; cited from earlier work"}, "[6]": {"details": "IC50 (inhibition of the sulfation of DHEA catalyzed by hSULT2A1), 1 μM [3H]DHEA, 200 μM PAPS, pH 7.0, 37°C, 10 min, mean ± standard error of the fit"}, "[7]": {"details": "Actual pIC50, -log IC50 (M), Table 3"}},
  "note": "Like-named read-outs stand apart in the source and are kept apart here.",
  "data": [
    {"smiles": "Oc1ccc(-c2ccc(Cl)cc2)cc1O", "note": "[3′,4′-diOHPCB 3, 3′, 4′-dihydroxy-4-monochlorobiphenyl]", "values": [
      {"measurement": "IC50", "setting": "hSULT2A1 [1]; IC50 (experimental, Table 3), experimental values used for CoMFA Model 1", "value": "9.57e-05", "unit": "M"},
      {"measurement": "IC50", "setting": "hSULT2A1 [1]; [6]", "value": "9.6e-05 ± 1.2e-06", "unit": "M"},
      {"measurement": "Difference between the experimental and the predicted values for pIC50", "setting": "hSULT2A1 [2]", "value": 0.072}
    ]},
    {"smiles": "Oc1ccc(-c2cccc(Cl)c2Cl)cc1O", "note": "[3′,4′-diOHPCB 5, 3′, 4′-dihydroxy-2,3-dichlorobiphenyl]", "values": [
      {"measurement": "IC50", "setting": "hSULT2A1 [1]; [7]", "value": "1.59e-05", "unit": "M"},
      {"measurement": "IC50", "setting": "hSULT2A1 [1]; [6]", "value": "1.6e-05 ± 1.1e-06", "unit": "M"},
      {"measurement": "Difference between the experimental and the predicted values for pIC50", "setting": "hSULT2A1 [2]", "value": 0.054}
    ]},
    {"smiles": "Oc1ccc(-c2ccc(Cl)cc2)c(Cl)c1", "note": "[4-OHPCB 8, 4-hydroxy-2, 4′-dichlorobiphenyl]", "values": [
      {"measurement": "IC50", "setting": "hSULT2A1 [1]; [7]", "value": "1e-05", "unit": "M"},
      {"measurement": "IC50", "setting": "hSULT2A1 [1]; [6]", "value": "1e-05 ± 1.2e-06", "unit": "M"},
      {"measurement": "Kis (substrate inhibition constant)", "setting": "hSULT2A1 [3]", "value": "65.4 ± 73.8", "unit": "µM"},
      {"measurement": "Difference between the experimental and the predicted values for pIC50", "setting": "hSULT2A1 [2]", "value": 0.303}
    ]},
    {"smiles": "Oc1ccc(-c2cccc(Cl)c2)cc1Cl", "note": "[4-OHPCB 11, 4-hydroxy-3, 3′-dichlorobiphenyl]", "values": [
      {"measurement": "IC50", "setting": "hSULT2A1 [1]; [7]", "value": "1.4e-05", "unit": "M"},
      {"measurement": "IC50", "setting": "hSULT2A1 [1]; [6]", "value": "1.4e-05 ± 1.2e-06", "unit": "M"},
      {"measurement": "Kis (substrate inhibition constant)", "setting": "hSULT2A1 [3]", "value": "51.9 ± 65.7", "unit": "µM"},
      {"measurement": "Difference between the experimental and the predicted values for pIC50", "setting": "hSULT2A1 [2]", "value": 0.011}
    ]},
    {"smiles": "Oc1c(Cl)cc(-c2ccccc2)cc1Cl", "note": "[4-OHPCB 14, 4-hydroxy-3,5-dichlorobiphenyl]", "values": [
      {"measurement": "IC50", "setting": "hSULT2A1 [1]; Actual IC50, Table 4", "value": "1.3e-05", "unit": "M"},
      {"measurement": "IC50", "setting": "hSULT2A1 [1]; [7]", "value": "1.3e-05", "unit": "M"},
      {"measurement": "IC50", "setting": "hSULT2A1 [1]; [6]", "value": "1.3e-05 ± 1.1e-06", "unit": "M"},
      {"measurement": "Kis (substrate inhibition constant)", "setting": "hSULT2A1 [3]", "value": "220 ± 56", "unit": "µM"},
      {"measurement": "Difference between the experimental and the predicted values for pIC50", "setting": "hSULT2A1 [2]", "value": 0.196},
      {"measurement": "fold difference between the predicted and the actual IC50 values", "setting": "hSULT2A1 [2]; CoMFA Model 2", "value": 3.8, "unit": "fold"}
    ]},
    {"smiles": "Oc1c(Cl)cc(-c2ccccc2Cl)cc1Cl", "note": "[4-OHPCB 34, 4-hydroxy-2′, 3,5-trichlorobiphenyl]", "values": [
      {"measurement": "IC50", "setting": "hSULT2A1 [1]; [7]", "value": "6e-07", "unit": "M"},
      {"measurement": "fold decrease in IC50 compared with 4-OHPCB 36", "setting": "hSULT2A1 [1]; chlorine in the non-phenolic ring changed from meta to ortho", "value": "approximately 7 fold"},
      {"measurement": "Kis (substrate inhibition constant)", "setting": "hSULT2A1 [3]", "value": "47.4 ± 16.2", "unit": "µM"},
      {"measurement": "Difference between the experimental and the predicted values for pIC50", "setting": "hSULT2A1 [2]", "value": 0.199}
    ]},
    {"smiles": "Oc1c(Cl)cc(-c2cccc(Cl)c2)cc1Cl", "note": "[4-OHPCB 36, 4-hydroxy-3, 3′, 5-trichlorobiphenyl]", "values": [
      {"measurement": "IC50", "setting": "hSULT2A1 [1]; [7]", "value": "4.4e-06", "unit": "M"},
      {"measurement": "IC50", "setting": "hSULT2A1 [1]; [6]", "value": "4.4e-06 ± 1.2e-06", "unit": "M"},
      {"measurement": "Kis (substrate inhibition constant)", "setting": "hSULT2A1 [3]", "value": "39.4 ± 23.1", "unit": "µM"},
      {"measurement": "Difference between the experimental and the predicted values for pIC50", "setting": "hSULT2A1 [2]", "value": 0.088}
    ]},
    {"smiles": "Oc1ccc(-c2ccc(Cl)cc2)cc1", "note": "[4′-OHPCB 3, 4′-hydroxy-4-monochlorobiphenyl]", "values": [
      {"measurement": "IC50", "setting": "hSULT2A1 [1]; [7]", "value": "2.81e-05", "unit": "M"},
      {"measurement": "IC50", "setting": "hSULT2A1 [1]; [6]", "value": "2.8e-05 ± 1.1e-06", "unit": "M"},
      {"measurement": "Difference between the experimental and the predicted values for pIC50", "setting": "hSULT2A1 [2]", "value": 0.026}
    ]},
    {"smiles": "Oc1ccc(-c2ccccc2Cl)cc1Cl", "note": "[4′-OHPCB 6, 4′-hydroxy-2, 3′-dichlorobiphenyl]", "values": [
      {"measurement": "IC50", "setting": "hSULT2A1 [1]; [7]", "value": "9.79e-06", "unit": "M"},
      {"measurement": "IC50", "setting": "hSULT2A1 [1]; [6]", "value": "9.8e-06 ± 1.1e-06", "unit": "M"},
      {"measurement": "Difference between the experimental and the predicted values for pIC50", "setting": "hSULT2A1 [2]", "value": 0.108}
    ]},
    {"smiles": "Oc1ccc(-c2cc(Cl)ccc2Cl)cc1", "note": "[4′-OHPCB 9, 4′-hydroxy-2,5-dichlorobiphenyl]", "values": [
      {"measurement": "IC50", "setting": "hSULT2A1 [1]; [7]", "value": "7.5e-06", "unit": "M"},
      {"measurement": "IC50", "setting": "hSULT2A1 [1]; [6]", "value": "7.5e-06 ± 1.1e-06", "unit": "M"},
      {"measurement": "Difference between the experimental and the predicted values for pIC50", "setting": "hSULT2A1 [2]", "value": 0.011}
    ]},
    {"smiles": "Oc1ccc(-c2ccc(Cl)c(Cl)c2)cc1", "note": "[4′-OHPCB 12, 4′-hydroxy-3,4-dichlorobiphenyl]", "values": [
      {"measurement": "IC50", "setting": "hSULT2A1 [1]; Actual IC50, Table 4", "value": "1.58e-05", "unit": "M"},
      {"measurement": "IC50", "setting": "hSULT2A1 [1]; [7]", "value": "1.58e-05", "unit": "M"},
      {"measurement": "IC50", "setting": "hSULT2A1 [1]; [6]", "value": "1.6e-05 ± 1.1e-06", "unit": "M"},
      {"measurement": "Difference between the experimental and the predicted values for pIC50", "setting": "hSULT2A1 [2]", "value": 0.039}
    ]},
    {"smiles": "Oc1ccc(-c2ccc(Cl)cc2Cl)cc1Cl", "note": "[4′-OHPCB 25, 4′-hydroxy-2, 3′, 4-trichlorobiphenyl]", "values": [
      {"measurement": "IC50", "setting": "hSULT2A1 [1]; Actual IC50, Table 4", "value": "4.4e-06", "unit": "M"},
      {"measurement": "IC50", "setting": "hSULT2A1 [1]; [7]", "value": "4.4e-06", "unit": "M"},
      {"measurement": "IC50", "setting": "hSULT2A1 [1]; [6]", "value": "4.4e-06 ± 1.3e-06", "unit": "M"},
      {"measurement": "solubility", "setting": "[4]", "value": "low solubility"},
      {"measurement": "Difference between the experimental and the predicted values for pIC50", "setting": "hSULT2A1 [2]", "value": 0.084}
    ]},
    {"smiles": "Oc1ccc(-c2ccc(Cl)c(Cl)c2)c(Cl)c1", "note": "[4′-OHPCB 33, 4′-hydroxy-2′, 3,4-trichlorobiphenyl]", "values": [
      {"measurement": "IC50", "setting": "hSULT2A1 [1]; [7]", "value": "2.5e-06", "unit": "M"},
      {"measurement": "IC50", "setting": "hSULT2A1 [1]; [6]", "value": "2.5e-06 ± 1.1e-06", "unit": "M"},
      {"measurement": "Kis (substrate inhibition constant)", "setting": "hSULT2A1 [3]", "value": "217 ± 189", "unit": "µM"},
      {"measurement": "Difference between the experimental and the predicted values for pIC50", "setting": "hSULT2A1 [2]", "value": 0.099}
    ]},
    {"smiles": "Oc1c(Cl)cc(-c2ccc(Cl)cc2Cl)cc1Cl", "note": "[4′-OHPCB 68, 4′-hydroxy-2, 3′, 4, 5′-tetrachlorobiphenyl]", "values": [
      {"measurement": "IC50", "setting": "hSULT2A1 [1]; [7]", "value": "8e-07", "unit": "M"},
      {"measurement": "Difference between the experimental and the predicted values for pIC50", "setting": "hSULT2A1 [2]", "value": 0.056}
    ]},
    {"smiles": "Oc1ccc(Cl)cc1-c1ccc(Cl)c(Cl)c1", "note": "[6′-OHPCB 35, 6′-hydroxy-3, 3′-4 trichlorobiphenyl]", "values": [
      {"measurement": "Actual pIC50", "setting": "hSULT2A1 [1]; -log IC50 (M), Table 3", "value": 4.810},
      {"measurement": "IC50", "setting": "hSULT2A1 [1]; read-out: IC50 (inhibition of the sulfation of DHEA catalyzed by hSULT2A1), 1 μM [3H]DHEA, 200 μM PAPS, pH 7.0, 37°C, 10 min, mean ± standard error of the fit", "value": "1.6e-05 ± 1.1e-06", "unit": "M"},
      {"measurement": "Difference between the experimental and the predicted values for pIC50", "setting": "hSULT2A1 [2]", "value": 0.088}
    ]},
    {"smiles": "C[C@]12CC[C@H](O)CC1=CC[C@@H]1[C@@H]2CC[C@]2(C)C(=O)CC[C@@H]12", "note": "[DHEA, dehydroepiandrosterone]", "values": [
      {"measurement": "Kis with DHEA as substrate", "setting": "hSULT2A1 [5]", "value": "8 ± 3", "unit": "µM"},
      {"measurement": "Vmax with DHEA as substrate", "setting": "hSULT2A1 [5]", "value": "245 ± 40", "unit": "nmol/min/mg"}
    ]}
  ]
}
